Assay results reported in patent publication US20250179061A1 (SIRONAX LTD., priority 2022, published 2025).
Where a name gives a salt, the structure may show the parent alone.

Test system: HT-29 cells
Assay: HT-29 necroptosis cell viability assay (TNF-α/SMAC mimetic/zVAD-FMK, CellTiter-Glo)
Format: cell-based
Conditions: Homo sapiens, HT-29, HT-29 necroptosis cell viability, IC50 class symbols; read-out: Activity
Outline: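 Necroptosis was triggered by TNF-α (10 ng/ml), SMAC mimetic (6 μM) and zVAD-FMK (10 μM) in serum-free medium during 20 h compound exposure (10 concentrations, threefold steps) of HT-29 cells. IC50 from duplicate dose-responses uses CellTiter-Glo ATP luminescence as viability read-out.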

First: O=c1n(Cc2c(F)cccc2F)cnn1-c1ccc(Oc2cc(N3CC4(CCN4)C3)ncc2Cl)c(F)c1 [Example 411, 2-(4-((5-chloro-2-(1,6-diazaspiro[3.3]heptan-6-yl)pyridin-4-yl)oxy)-3-fluorophenyl)-4-(2,6-difluorobenzyl)-2,4-dihydro-3H-1,2,4-triazol-3-one hydrochloride]
Second: O=c1n(Cc2c(F)cccc2F)cnn1-c1ccc(Oc2cc(N3CC4(CCCN4)C3)ncc2Cl)c(F)c1 [Example 412, 2-(4-((5-chloro-2-(2,5-diazaspiro[3.4]octan-2-yl)pyridin-4-yl)oxy)-3-fluorophenyl)-4-(2,6-difluorobenzyl)-2,4-dihydro-3H-1,2,4-triazol-3-one]
The IC50 of the first is lower: < 100 nM for the first, 100 to 1000 nM for the second.

`C[C@H]1C[C@@H](N)CN1c1cc(Oc2ccc(-n3ncn(Cc4c(F)cccc4F)c3=O)cc2F)c(Cl)cn1` [Example 413, 2-(4-((2-((2S,4R)-4-amino-2-methylpyrrolidin-1-yl)-5-chloropyridin-4-yl)oxy)-3-fluorophenyl)-4-(2,6-difluorobenzyl)-2,4-dihydro-3H-1,2,4-triazol-3-one] and `C[C@H]1[C@@H](N)CN1c1cc(Oc2ccc(-n3ncn(Cc4c(F)cccc4F)c3=O)cc2F)c(Cl)cn1` [Example 425, 2-(4-((2-((2S,3S)-3-amino-2-methylazetidin-1-yl)-5-chloropyridin-4-yl)oxy)-3-fluorophenyl)-4-(2,6-difluorobenzyl)-2,4-dihydro-3H-1,2,4-triazol-3-one] cannot be ordered by IC50: < 100 nM for the first, < 100 nM for the second.

First: CNC1(C)CN(c2cc(Oc3ccc(-n4ncn(Cc5c(F)cccc5F)c4=O)cc3F)c(Cl)cn2)C1 [Example 414, 2-(4-((5-chloro-2-(3-methyl-3-(methylamino)azetidin-1-yl)pyridin-4-yl)oxy)-3-fluorophenyl)-4-(2,6-difluorobenzyl)-2,4-dihydro-3H-1,2,4-triazol-3-one]
Second: CC1(N)CN(c2cc(Oc3ccc(-n4ncn(Cc5c(F)cccc5F)c4=O)cc3F)c(Cl)cn2)C1 [Example 421, 2-(4-((2-(3-amino-3-methylazetidin-1-yl)-5-chloropyridin-4-yl)oxy)-3-fluorophenyl)-4-(2,6-difluorobenzyl)-2,4-dihydro-3H-1,2,4-triazol-3-one]
The IC50 of the first is higher: > 10000 nM for the first, < 100 nM for the second.

First: C[C@H]1[C@@H](N)CN1c1cc(Oc2ccc(-n3ncn(Cc4c(F)cccc4F)c3=O)cc2F)c(F)cn1 [Example 415, 2-(4-((2-((2S,3S)-3-amino-2-methylazetidin-1-yl)-5-fluoropyridin-4-yl)oxy)-3-fluorophenyl)-4-(2,6-difluorobenzyl)-2,4-dihydro-3H-1,2,4-triazol-3-one]
Second: CC1(N)CN(c2cc(Oc3ccc(-n4ncn(Cc5c(F)cccc5F)c4=O)cc3F)c(F)cn2)C1 [Example 424, 2-(4-((2-(3-amino-3-methylazetidin-1-yl)-5-fluoropyridin-4-yl)oxy)-3-fluorophenyl)-4-(2,6-difluorobenzyl)-2,4-dihydro-3H-1,2,4-triazol-3-one]
The IC50 of the first is lower: < 100 nM for the first, 100 to 1000 nM for the second.

`CC1(N)CN(c2nccc(Oc3ccc(-n4ncn(Cc5c(F)cccc5F)c4=O)cc3F)c2F)C1` [Example 416, 2-(4-((2-(3-amino-3-methylazetidin-1-yl)-3-fluoropyridin-4-yl)oxy)-3-fluorophenyl)-4-(2,6-difluorobenzyl)-2,4-dihydro-3H-1,2,4-triazol-3-one] and `Cc1c(Oc2ccc(-n3ncn(Cc4c(F)cccc4F)c3=O)cc2F)ccnc1N1CC(C)(N)C1` [Example 417, 2-(4-((2-(3-amino-3-methylazetidin-1-yl)-3-methylpyridin-4-yl)oxy)-3-fluorophenyl)-4-(2,6-difluorobenzyl)-2,4-dihydro-3H-1,2,4-triazol-3-one] cannot be ordered by IC50: < 100 nM for the first, < 100 nM for the second.

First: O=c1n(Cc2c(F)cccc2F)cnn1-c1ccc(Oc2cc(N3CC4(CNC4)C3)ncc2F)c(F)c1 [Example 418, 4-(2,6-difluorobenzyl)-2-(3-fluoro-4-((5-fluoro-2-(2,6-diazaspiro[3.3]heptan-2-yl)pyridin-4-yl)oxy)phenyl)-2,4-dihydro-3H-1,2,4-triazol-3-one]
Second: CCNC1(C)CN(c2cc(Oc3ccc(-n4ncn(Cc5c(F)cccc5F)c4=O)cc3F)c(F)cn2)C1 [Example 419, 4-(2,6-difluorobenzyl)-2-(4-((2-(3-(ethylamino)-3-methylazetidin-1-yl)-5-fluoropyridin-4-yl)oxy)-3-fluorophenyl)-2,4-dihydro-3H-1,2,4-triazol-3-one]
The IC50 of the first is lower: < 100 nM for the first, 100 to 1000 nM for the second.

`CC1(N)CN(c2nccc(Oc3ccc(-n4ncn(Cc5c(F)cccc5F)c4=O)cc3F)c2Cl)C1` [Example 420, 2-(4-((2-(3-amino-3-methylazetidin-1-yl)-3-chloropyridin-4-yl)oxy)-3-fluorophenyl)-4-(2,6-difluorobenzyl)-2,4-dihydro-3H-1,2,4-triazol-3-one] and `CC1(N)CN(c2nccc(Oc3ccc(-n4ncn(Cc5c(F)cccc5F)c4=O)cc3Cl)c2F)C1` [Example 423, 2-(4-((2-(3-amino-3-methylazetidin-1-yl)-3-fluoropyridin-4-yl)oxy)-3-chlorophenyl)-4-(2,6-difluorobenzyl)-2,4-dihydro-3H-1,2,4-triazol-3-one] cannot be ordered by IC50: < 100 nM for the first, < 100 nM for the second.

`Cc1cnc(N2CC(C)(N)C2)cc1Oc1ccc(-n2ncn(Cc3c(F)cccc3F)c2=O)cc1F` [Example 422, 2-(4-((2-(3-amino-3-methylazetidin-1-yl)-5-methylpyridin-4-yl)oxy)-3-fluorophenyl)-4-(2,6-difluorobenzyl)-2,4-dihydro-3H-1,2,4-triazol-3-one] and `C[C@H]1[C@@H](N(C)C)CN1c1cc(Oc2ccc(-n3ncn(Cc4c(F)cccc4F)c3=O)cc2F)c(Cl)cn1` [Example 426, 2-(4-((5-chloro-2-((2S,3S)-3-(dimethylamino)-2-methylazetidin-1-yl)pyridin-4-yl)oxy)-3-fluorophenyl)-4-(2,6-difluorobenzyl)-2,4-dihydro-3H-1,2,4-triazol-3-one] cannot be ordered by IC50: < 100 nM for the first, < 100 nM for the second.

Compared with `O=c1n(-c2ccc(Oc3cccnc3)cc2)nc(Cl)n1Cc1ccccc1` [Example 427, 4-benzyl-5-chloro-2-(4-(pyridin-3-yloxy)phenyl)-2,4-dihydro-3H-1,2,4-triazol-3-one], `Cn1c(Oc2ccc(-n3nc(Cl)n(Cc4ccccc4)c3=O)cc2)cccc1=O` [Example 429, 6-(4-(4-benzyl-3-chloro-5-oxo-4,5-dihydro-1H-1,2,4-triazol-1-yl)phenoxy)-1-methylpyridin-2(1H)-one] is higher in IC50: < 100 nM for the first, 100 to 1000 nM for the second. The first is the more potent here.

First: O=c1n(-c2ccc(Oc3ccccc3)cc2)nc2n1C(c1ccccc1)CC2 (centres unmarked) [Example 428, 2-(4-phenoxyphenyl)-5-phenyl-2,5,6,7-tetrahydro-3H-pyrrolo[2,1-c][1,2,4]triazol-3-one]
Second: O=c1n(-c2ccc(Oc3ccccc3[N+](=O)[O-])cc2)nc(Cl)n1Cc1ccccc1 [Example 430, 4-benzyl-5-chloro-2-(4-(2-nitrophenoxy)phenyl)-2,4-dihydro-3H-1,2,4-triazol-3-one]
The IC50 of the first is lower: < 100 nM for the first, 100 to 1000 nM for the second.

First: O=c1n(Cc2c(F)cccc2F)cnn1-c1ccc(Oc2ccnnc2)cc1 [Example 431, 4-(2,6-difluorobenzyl)-2-(4-(pyridazin-4-yloxy)phenyl)-2,4-dihydro-3H-1,2,4-triazol-3-one]
Second: O=c1n(Cc2c(F)cccc2F)cnn1-c1ccc(Oc2ccncc2)cc1 [Example 438, 4-(2,6-difluorobenzyl)-2-(4-(pyridin-4-yloxy)phenyl)-2,4-dihydro-3H-1,2,4-triazol-3-one]
The IC50 of the first is higher: 1000 to 10000 nM for the first, 100 to 1000 nM for the second.

`O=c1n(Cc2c(F)cccc2F)cnn1-c1ccc(Oc2ccncc2Br)cc1` [Example 432, 2-(4-((3-bromopyridin-4-yl)oxy)phenyl)-4-(2,6-difluorobenzyl)-2,4-dihydro-3H-1,2,4-triazol-3-one] and `Nc1ccccc1Oc1ccc(-n2ncn(Cc3c(F)cccc3F)c2=O)cc1` [Example 439, 2-(4-(2-aminophenoxy)phenyl)-4-(2,6-difluorobenzyl)-2,4-dihydro-3H-1,2,4-triazol-3-one] cannot be ordered by IC50: < 100 nM for the first, < 100 nM for the second.

Compared with `O=c1n(Cc2c(F)cccc2F)cnn1-c1ccc(Oc2ccccc2[N+](=O)[O-])cc1` [Example 433, 4-(2,6-difluorobenzyl)-2-(4-(2-nitrophenoxy)phenyl)-2,4-dihydro-3H-1,2,4-triazol-3-one], `O=c1n(Cc2c(F)cccc2F)cnn1-c1ccc(Oc2c(Cl)cccc2[N+](=O)[O-])cc1` [Example 434, 2-(4-(2-chloro-6-nitrophenoxy)phenyl)-4-(2,6-difluorobenzyl)-2,4-dihydro-3H-1,2,4-triazol-3-one] is lower in IC50: 100 to 1000 nM for the first, < 100 nM for the second.

First: N#Cc1ccc(Oc2ccc(-n3ncn(Cc4c(F)cccc4F)c3=O)cc2)cc1 [Example 435, 4-(4-(4-(2,6-difluorobenzyl)-5-oxo-4,5-dihydro-1H-1,2,4-triazol-1-yl)phenoxy)benzonitrile]
Second: N#Cc1cccc(Oc2ccc(-n3ncn(Cc4c(F)cccc4F)c3=O)cc2)c1 [Example 437, 3-(4-(4-(2,6-difluorobenzyl)-5-oxo-4,5-dihydro-1H-1,2,4-triazol-1-yl)phenoxy)benzonitrile]
The IC50 of the first is higher: 100 to 1000 nM for the first, < 100 nM for the second.

Compared with `COc1cc(Oc2ccc(-n3ncn(Cc4c(F)cccc4F)c3=O)cc2)cc(OC)n1` [Example 436, 4-(2,6-difluorobenzyl)-2-(4-((2,6-dimethoxypyridin-4-yl)oxy)phenyl)-2,4-dihydro-3H-1,2,4-triazol-3-one], `Nc1cnc(Cl)cc1Oc1ccc(-n2ncn(Cc3c(F)cccc3F)c2=O)cc1` [Example 441, 2-(4-((5-amino-2-chloropyridin-4-yl)oxy)phenyl)-4-(2,6-difluorobenzyl)-2,4-dihydro-3H-1,2,4-triazol-3-one] is lower in IC50: 100 to 1000 nM for the first, < 100 nM for the second.

`Nc1cccc(Cl)c1Oc1ccc(-n2ncn(Cc3c(F)cccc3F)c2=O)cc1` [Example 440, 2-(4-(2-amino-6-chlorophenoxy)phenyl)-4-(2,6-difluorobenzyl)-2,4-dihydro-3H-1,2,4-triazol-3-one] and `Nc1cccc(F)c1Oc1ccc(-n2ncn(Cc3c(F)cccc3F)c2=O)cc1` [Example 442, 2-(4-(2-amino-6-fluorophenoxy)phenyl)-4-(2,6-difluorobenzyl)-2,4-dihydro-3H-1,2,4-triazol-3-one] cannot be ordered by IC50: < 100 nM for the first, < 100 nM for the second.
